From paper PMC6978363, “Chaperone mediated detection of small molecule target binding in cells” (Nature Communications, 2020)

Key:
Experiment in all cases: biochemical
Details in all cases: read-out: % Inhibition (at 10mM)
SRPK1 = SRPK1 (Homo sapiens, UniProt Q96SB4)
Syk = Syk (Homo sapiens, UniProt P43405)
EphB1 = EphB1 (Homo sapiens, UniProt P54762)
Tie2 = target: T1, Tie2 (Homo sapiens, UniProt Q02763)
T1 construct: gene TEK

FAK2 = target: T2, FAK2 (Homo sapiens, UniProt Q14289)
T2 construct: gene PTK2B

ERK2 = target: T3, ERK2 (Homo sapiens, UniProt P28482)
T3 construct: gene MAPK1
T3 sequence (P28482 whole entry): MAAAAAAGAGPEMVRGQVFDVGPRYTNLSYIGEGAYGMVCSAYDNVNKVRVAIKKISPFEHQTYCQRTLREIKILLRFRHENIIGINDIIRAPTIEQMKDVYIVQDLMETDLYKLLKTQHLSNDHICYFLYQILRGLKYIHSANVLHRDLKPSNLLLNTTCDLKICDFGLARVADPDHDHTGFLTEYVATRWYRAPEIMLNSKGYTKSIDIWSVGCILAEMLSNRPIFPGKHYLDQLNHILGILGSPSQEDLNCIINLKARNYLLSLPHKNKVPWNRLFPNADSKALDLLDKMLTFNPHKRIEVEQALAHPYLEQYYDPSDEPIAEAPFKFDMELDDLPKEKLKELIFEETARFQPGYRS

PAK2 = PAK2 (Homo sapiens, UniProt Q13177)
CK1_gamma2 = target: T4, CK1_gamma2 (Homo sapiens, UniProt P78368)
T4 construct: gene CSNK1G2

MSK2 = target: T5, MSK2 (Homo sapiens, UniProt O75676)
T5 construct: gene RPS6KA4

Aurora_C = target: T6, Aurora_C (Homo sapiens, UniProt Q9UQB9)
T6 construct: gene AURKC

PKC_iota = target: T7, PKC_iota (Homo sapiens, UniProt P41743)
T7 construct: gene PRKCI

EphB3 = EphB3 (Homo sapiens, UniProt P54753)
Chain of EphB3 (P54753 whole entry): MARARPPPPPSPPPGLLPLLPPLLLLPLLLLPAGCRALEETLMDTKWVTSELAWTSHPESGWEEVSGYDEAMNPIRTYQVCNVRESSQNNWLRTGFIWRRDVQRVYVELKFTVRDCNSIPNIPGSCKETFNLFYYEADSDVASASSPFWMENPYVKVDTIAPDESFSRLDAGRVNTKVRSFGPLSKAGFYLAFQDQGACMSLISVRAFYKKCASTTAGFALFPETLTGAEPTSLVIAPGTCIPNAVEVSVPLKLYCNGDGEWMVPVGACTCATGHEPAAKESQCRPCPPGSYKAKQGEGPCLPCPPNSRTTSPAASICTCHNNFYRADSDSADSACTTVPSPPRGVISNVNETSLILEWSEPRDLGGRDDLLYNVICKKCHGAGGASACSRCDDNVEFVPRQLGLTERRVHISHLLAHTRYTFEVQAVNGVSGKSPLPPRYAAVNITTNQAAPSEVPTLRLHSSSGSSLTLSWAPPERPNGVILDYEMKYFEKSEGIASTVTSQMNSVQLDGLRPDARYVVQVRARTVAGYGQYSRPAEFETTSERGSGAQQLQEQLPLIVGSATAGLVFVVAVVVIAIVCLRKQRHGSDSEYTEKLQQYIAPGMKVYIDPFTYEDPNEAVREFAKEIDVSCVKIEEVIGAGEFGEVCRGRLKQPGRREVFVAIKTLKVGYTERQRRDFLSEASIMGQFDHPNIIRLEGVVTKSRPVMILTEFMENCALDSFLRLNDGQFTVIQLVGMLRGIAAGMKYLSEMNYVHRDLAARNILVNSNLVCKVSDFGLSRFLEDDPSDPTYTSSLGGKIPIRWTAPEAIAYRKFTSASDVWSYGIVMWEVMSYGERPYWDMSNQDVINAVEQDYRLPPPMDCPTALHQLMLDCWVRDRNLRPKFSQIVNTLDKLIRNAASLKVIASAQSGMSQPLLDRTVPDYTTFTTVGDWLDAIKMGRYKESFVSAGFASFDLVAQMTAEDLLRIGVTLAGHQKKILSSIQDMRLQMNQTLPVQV

CDK2/cyclinA = CDK2/cyclinA (Homo sapiens, UniProt P24941)
PIM1 = PIM1 (Homo sapiens, UniProt P11309)
PCTK2 = target: T8, PCTK2 (Homo sapiens, UniProt Q00537)
T8 construct: gene CDK17

CSF1R = CSF1R (Homo sapiens, UniProt P07333)
PRKAA1 = PRKAA1 (Homo sapiens, UniProt Q13131)
Chain of PRKAA1 (Q13131 whole entry): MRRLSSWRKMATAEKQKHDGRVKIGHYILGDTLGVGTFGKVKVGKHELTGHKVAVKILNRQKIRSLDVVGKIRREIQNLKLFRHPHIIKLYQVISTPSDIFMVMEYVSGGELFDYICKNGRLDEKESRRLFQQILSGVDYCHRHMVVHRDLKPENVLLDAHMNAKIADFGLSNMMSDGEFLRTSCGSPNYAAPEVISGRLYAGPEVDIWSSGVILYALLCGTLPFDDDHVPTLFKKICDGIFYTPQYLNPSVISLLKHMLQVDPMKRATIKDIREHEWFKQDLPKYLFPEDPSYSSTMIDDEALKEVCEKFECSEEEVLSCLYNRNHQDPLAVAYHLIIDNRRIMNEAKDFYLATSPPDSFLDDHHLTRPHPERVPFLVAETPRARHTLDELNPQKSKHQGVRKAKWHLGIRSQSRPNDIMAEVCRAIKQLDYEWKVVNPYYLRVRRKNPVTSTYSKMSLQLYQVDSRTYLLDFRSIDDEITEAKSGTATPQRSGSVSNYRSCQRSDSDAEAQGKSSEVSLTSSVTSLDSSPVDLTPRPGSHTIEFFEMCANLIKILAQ
Chain of PRKAA1 (P54619 whole entry partner): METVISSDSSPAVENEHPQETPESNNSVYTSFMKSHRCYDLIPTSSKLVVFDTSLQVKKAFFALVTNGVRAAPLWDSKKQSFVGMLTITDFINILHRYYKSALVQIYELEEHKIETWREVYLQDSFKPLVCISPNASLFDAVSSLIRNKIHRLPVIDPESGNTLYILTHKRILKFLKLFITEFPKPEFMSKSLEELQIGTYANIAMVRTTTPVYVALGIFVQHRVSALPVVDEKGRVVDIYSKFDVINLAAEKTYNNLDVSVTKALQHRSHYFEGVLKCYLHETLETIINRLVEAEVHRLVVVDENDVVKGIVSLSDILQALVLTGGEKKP
Chain of PRKAA1 (Q9Y478 whole entry partner): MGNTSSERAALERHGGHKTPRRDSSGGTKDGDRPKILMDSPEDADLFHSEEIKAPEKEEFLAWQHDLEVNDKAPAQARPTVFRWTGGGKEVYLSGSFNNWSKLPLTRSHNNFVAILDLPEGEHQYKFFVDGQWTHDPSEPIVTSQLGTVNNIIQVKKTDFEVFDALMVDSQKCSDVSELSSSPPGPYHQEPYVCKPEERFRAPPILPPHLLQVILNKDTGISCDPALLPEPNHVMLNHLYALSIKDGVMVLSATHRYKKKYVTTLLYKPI

PIM2 = PIM2 (Homo sapiens, UniProt Q9P1W9)
Chain of PIM2 (Q9P1W9 whole entry): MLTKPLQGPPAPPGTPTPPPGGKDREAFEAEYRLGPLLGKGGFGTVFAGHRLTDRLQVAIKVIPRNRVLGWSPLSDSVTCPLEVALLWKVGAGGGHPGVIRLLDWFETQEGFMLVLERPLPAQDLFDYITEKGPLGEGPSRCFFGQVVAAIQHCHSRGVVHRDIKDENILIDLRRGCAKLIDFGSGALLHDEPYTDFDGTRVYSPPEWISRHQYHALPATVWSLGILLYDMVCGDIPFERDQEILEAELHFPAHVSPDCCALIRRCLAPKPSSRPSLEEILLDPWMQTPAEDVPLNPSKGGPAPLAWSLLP

PhK_gamma1 = target: T9, PhK_gamma1 (Homo sapiens, UniProt Q16816)
T9 construct: gene PHKG1
T9 sequence (Q16816 whole entry): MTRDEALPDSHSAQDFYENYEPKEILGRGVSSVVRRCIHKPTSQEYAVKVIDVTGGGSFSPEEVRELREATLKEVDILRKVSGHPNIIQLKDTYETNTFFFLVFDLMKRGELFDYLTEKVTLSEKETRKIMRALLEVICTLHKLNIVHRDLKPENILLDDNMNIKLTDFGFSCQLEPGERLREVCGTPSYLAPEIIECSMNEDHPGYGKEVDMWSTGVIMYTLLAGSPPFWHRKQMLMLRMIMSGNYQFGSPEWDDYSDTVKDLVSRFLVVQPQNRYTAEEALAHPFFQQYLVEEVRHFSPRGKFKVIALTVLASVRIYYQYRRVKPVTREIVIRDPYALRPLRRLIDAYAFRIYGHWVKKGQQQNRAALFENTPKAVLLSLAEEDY

ERK5 = target: T10, ERK5 (Homo sapiens, UniProt Q13164)
T10 construct: gene MAPK7

FGFR3 = FGFR3 (Homo sapiens, UniProt P22607)
PRKAA2_B2_G3 = target: T11, PRKAA2_B2_G3 (Homo sapiens, UniProt P54646)
T11 construct: gene PRKAA2

Hyl = target: T12, Hyl (Homo sapiens, UniProt P42679)
T12 construct: gene MATK

PrKX = PrKX (Homo sapiens, UniProt P51817)
CHK2 = target: T13, CHK2 (Homo sapiens, UniProt O96017)
T13 construct: gene CHEK2

AKT1 = AKT1 (Homo sapiens, UniProt P31749)
PKC_beta2 = target: T14, PKC_beta2 (Homo sapiens, UniProt P05771)
T14 construct: gene PRKCB; isoform beta 2

MRCK_alpha = target: T15, MRCK_alpha (Homo sapiens, UniProt Q5VT25)
T15 construct: gene CDC42BPA
T15 sequence (Q5VT25 whole entry): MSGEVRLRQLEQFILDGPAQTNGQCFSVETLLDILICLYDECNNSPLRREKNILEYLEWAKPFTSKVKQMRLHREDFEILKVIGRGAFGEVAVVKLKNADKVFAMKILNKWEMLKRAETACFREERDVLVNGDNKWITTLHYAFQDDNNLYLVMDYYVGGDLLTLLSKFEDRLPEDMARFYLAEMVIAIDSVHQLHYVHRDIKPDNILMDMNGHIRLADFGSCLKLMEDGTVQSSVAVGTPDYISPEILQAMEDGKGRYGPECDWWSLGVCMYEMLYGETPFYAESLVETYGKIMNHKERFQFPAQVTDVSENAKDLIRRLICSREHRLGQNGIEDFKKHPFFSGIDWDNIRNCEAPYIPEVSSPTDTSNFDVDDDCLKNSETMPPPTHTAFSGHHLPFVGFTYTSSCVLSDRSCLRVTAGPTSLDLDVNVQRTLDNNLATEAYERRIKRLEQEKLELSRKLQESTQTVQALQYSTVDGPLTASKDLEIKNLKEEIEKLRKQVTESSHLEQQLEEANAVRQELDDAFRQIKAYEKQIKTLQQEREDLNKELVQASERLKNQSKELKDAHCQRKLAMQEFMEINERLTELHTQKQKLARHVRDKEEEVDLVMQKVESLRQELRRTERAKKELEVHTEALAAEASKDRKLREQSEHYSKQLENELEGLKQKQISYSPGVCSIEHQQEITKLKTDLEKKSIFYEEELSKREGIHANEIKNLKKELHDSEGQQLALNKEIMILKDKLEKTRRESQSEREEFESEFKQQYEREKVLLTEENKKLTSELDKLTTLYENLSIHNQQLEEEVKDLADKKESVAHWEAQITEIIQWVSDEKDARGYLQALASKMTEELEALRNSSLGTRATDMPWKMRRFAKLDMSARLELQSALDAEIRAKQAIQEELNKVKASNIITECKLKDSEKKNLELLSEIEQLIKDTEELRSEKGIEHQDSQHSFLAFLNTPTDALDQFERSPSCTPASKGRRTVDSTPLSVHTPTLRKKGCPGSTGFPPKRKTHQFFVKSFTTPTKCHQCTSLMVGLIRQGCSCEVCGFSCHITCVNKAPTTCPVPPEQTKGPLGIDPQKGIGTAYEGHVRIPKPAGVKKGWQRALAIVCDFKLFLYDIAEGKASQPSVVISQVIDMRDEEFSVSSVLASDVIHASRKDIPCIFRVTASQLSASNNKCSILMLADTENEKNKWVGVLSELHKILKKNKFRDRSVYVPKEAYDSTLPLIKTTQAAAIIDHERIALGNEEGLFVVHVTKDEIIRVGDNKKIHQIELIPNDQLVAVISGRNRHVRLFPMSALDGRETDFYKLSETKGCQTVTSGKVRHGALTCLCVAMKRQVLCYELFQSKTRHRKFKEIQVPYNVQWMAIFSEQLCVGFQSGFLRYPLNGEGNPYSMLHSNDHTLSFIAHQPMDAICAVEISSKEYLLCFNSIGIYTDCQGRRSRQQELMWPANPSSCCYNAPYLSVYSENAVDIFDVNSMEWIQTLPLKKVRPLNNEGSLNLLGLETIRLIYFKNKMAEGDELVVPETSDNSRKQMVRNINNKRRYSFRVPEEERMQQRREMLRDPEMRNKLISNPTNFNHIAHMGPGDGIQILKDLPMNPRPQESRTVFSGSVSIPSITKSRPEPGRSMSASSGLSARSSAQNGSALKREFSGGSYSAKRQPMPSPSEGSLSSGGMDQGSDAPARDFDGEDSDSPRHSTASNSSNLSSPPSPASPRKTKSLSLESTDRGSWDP

GSK3_alpha = target: T16, GSK3_alpha (Homo sapiens, UniProt P49840)
T16 construct: gene GSK3A

CamKIV = target: T17, CamKIV (Homo sapiens, UniProt Q16566)
T17 construct: gene CAMK4

GRK3 = GRK3 (Homo sapiens, UniProt P35626)
ITK = ITK (Homo sapiens, UniProt Q08881)
Flt1 = Flt1 (Homo sapiens, UniProt P17948)
NEK7 = NEK7 (Homo sapiens, UniProt Q8TDX7)
GSK3_beta = target: T18, GSK3_beta (Homo sapiens, UniProt P49841)
T18 construct: gene GSK3B

TBK1 = TBK1 (Homo sapiens, UniProt Q9UHD2)
PAK7 = target: T19, PAK7 (Homo sapiens, UniProt Q9P286)
T19 construct: gene PAK5

IKK_beta = target: T20, IKK_beta (Homo sapiens, UniProt O14920)
T20 construct: gene IKBKB

CC(C)(O)CC(=O)NCCn1ccc2ncnc(Nc3ccc(Oc4cccc(C(F)(F)F)c4)c(Cl)c3)c21 [TAK-285]
inhibition (SRPK1): 10.5% | inhibition (Syk): 3.5% | inhibition (EphB1): -6% | inhibition (Tie2): -6% | inhibition (FAK2): 4% | inhibition (ERK2): 12.5% | inhibition (PAK2): 10.5% | inhibition (CK1_gamma2): -5% | inhibition (MSK2): 9.5% | inhibition (Aurora_C): 22.5% | inhibition (PKC_iota): 8% | inhibition (EphB3): 6.5% | inhibition (CDK2/cyclinA): 4.5% | inhibition (PIM1): 5.5% | inhibition (PCTK2): 0.5% | inhibition (CSF1R): 10.5% | inhibition (PRKAA1): 6% | inhibition (PIM2): 5.5% | inhibition (PhK_gamma1): 7.5% | inhibition (ERK5): 0.5% | inhibition (FGFR3): -6% | inhibition (PRKAA2_B2_G3): 9.5% | inhibition (Hyl): -2.5% | inhibition (PrKX): 6.5% | inhibition (CHK2): 20% | inhibition (AKT1): 1.5% | inhibition (PKC_beta2): 9.5% | inhibition (MRCK_alpha): -3.5% | inhibition (GSK3_alpha): 10% | inhibition (CamKIV): 6.5% | inhibition (GRK3): -5.5% | inhibition (ITK): 1% | inhibition (Flt1): -1.5% | inhibition (NEK7): 7% | inhibition (GSK3_beta): 9% | inhibition (TBK1): 8% | inhibition (PAK7): 5.5% | inhibition (IKK_beta): -0.5%
